Assay results reported in US4459294A, “Phosphoric and thiophosphoric esters of 5(3)-hydroxypyrazoles exerting an insecticidal action” (priority 1977, dated 1984).

Legend:
Pieris brassicae = assay: Biological activity on Pieris brassicae (Lepitoptera), 5-day old larvae; assay type: in vivo; conditions: 0.1 permill.; 48 hours after treatment
Method: Biological activity on Pieris brassicae (Lepitoptera)
Cut cauliflower leaves were sprinkled with an aqueous dispersion of the products under examination. After drying, the leaves were infested with 5-day old larvae. The percentage death rate of the larvae (untreated leaves=0) was determined 48 hours after treatment.

Spodoptera littoralis = assay: Biological activity on Spodoptera littoralis (Lepidoptera), 5-days old larvae; assay type: in vivo; conditions: 0.1 permill.; 48 hours after treatment
Method: Biological activity on Spodoptera littoralis (Lepidoptera)
Cut tobacco leaves were sprinkled with an aqueous dispersion of the products under examination. After drying, the leaves were infested with 5-days old larvae. The percentage mortality of the larvae was determined 48 hours after treatment (untreated leaves, mortality=0).

Culex pipiens larvae = assay: Biological activity on Culex pipiens (diptera) larvae; assay type: in vivo; conditions: 24 hours after treatment, read-out: percentage of reduction of the infestation (percentage death rate), Culex larvae
Method: Biological activity on Culex pipiens (diptera) larvae
Into glasses containing an aqueous dispersion of the products under examination, were introduced third and fourth age mosquito larvae. The percentage death rate of the larvae (glasses containing pure water=0) was determined 24 hours after treatment.

Culex pipiens adults = assay: Biological activity on Culex pipiens (Diptera): adults; assay type: in vivo; conditions: 0.2 g/m^2, 24 hours after beginning of treatment, read-out: percentage of reduction of the infestation (mortality percentage), Culex ad.
Method: Biological activity on Culex pipiens (Diptera): adults
Whatman n°1 paper rectangles were treated uniformly with an acetonic solution of the products under examination. After evaporation of the solvent, each treated paper rectangle was used to line the inside wall of a perspex cylinder (model OMS). The paper-lined perspex cylinder was then closed with a net after having introduced into it 2-3 days old adult females. After one hour from the start of the contact, the insects were transferred into a similar cylinder likewise lined with untreated paper, and were fed with a sugary solution.
The mortality percentage (untreated insects=0) was determined 24 hours after the beginning of the treatment.

Musca domestica = assay: Biological activity on Musca domestica (Diptera), topical application; assay type: in vivo; conditions: 0.5 γ/ins, 24 hours after treatment
Method: Biological activity on Musca domestica (Diptera)
4-days old adults were treated, by topical application by microsyringe, with an acetonic solution of the products under examination.
The mortality percentage (insects treated with acetone only=0) was determined 24 hours after the treatment.

[1] = tested on: Leptinatarsa decomlineata; assay: Biological activity on Leptinatarsa decomlineata (Coledptera), 4-day old larvae; assay type: in vivo; conditions: 0.1 permill.; 48 hours after treatment
Method: Biological activity on Leptinatarsa decomlineata (Coledptera)
Small, pot-grown potato-plants were infested with 4-day old larvae, and then were sprinkled with an aqueous dispersion of the products under examination. The percentage death rate (untreated plants=0) was determined 48 hours after treatment.

Macrosiphum euphorbiae = assay: Biological activity on Macrosiphum euphorbiae (aphides); assay type: in vivo; parameters: tested at 0.01 permill; conditions: 0.01 permill.; 24 hours after treatment
Method: Biological activity on Macrosiphum euphorbiae (aphides)
Small potato plants grown in pots were infested with adult female aphides and, after several hours, were sprinkled with an aqueous dispersion of the products under examination.
The percentage death rate was determined 24 hours after treatment (untreated plants=0).

Tetranychus urticae = assay: Biological activity on Tetranychus urticae (Acari) adults; assay type: in vivo; conditions: 0.01 permill.; 24 hours after treatment
Method: Biological Activity on Tetranychus urticae (Acari) adults
Small bean leaf discs were infected with adult acari and were then sprinkled with an aqueous dispersion of the products under examination. The percentage of mortality was determined 24 hours after the treatment (untreated discs, mortality=0).

Meloidogyne incognita = assay: Biological activity on Meloidogyne incognita (Nematoda); assay type: in vivo; conditions: 20 ppm; 21 days after transplanting
Method: Biological activity on Meloidogyne incognita (Nematoda)
Aliquot parts of a 1:1 mixture of field soil and sand, infested by Nematoda larvae and eggs, were treated by uniformly mixing same with an aqueous dispersion of the products under examination. The soil was then distributed into plastic pots, and after 5 days into each pot there were transplanted 5 tomato plants about 20 cm high. The survey of the results was carried out 21 days after the transplanting, by observing the roots of the plants extracted from the soil in order to ascertain the degree of infestation by counting the galls that have formed on them. The nematocide activity was expressed as a percentage of reduction of the infestation with respect to the witness plant (small plants transplanted into untreated soil, activity=0).

Blatta orientalis = assay: Biological activity on Blatta orientalis (Ortoptera); assay type: in vivo; conditions: 0.1 g/m^2, 48 hours after start of treatment, read-out: percentage of reduction of the infestation (percentage mortality), Blatta
Method: Biological activity on Blatta orientalis (Ortoptera)
The bottom and side walls of glass beakers were treated uniformly with an acetonic solution of the products under examination. After evaporation of the solvent in each beaker, into the same were then introduced ten, 80-100 days old neanides, whereafter they were closed with a lid of metal netting. After 24 hours from the beginning of the treatment, the insects were transferred into untreated glass beakers, and suitably nourished. The percentage mortality (untreated insects=0) was determined 48 hours after the start of the treatment.

Toxicity by os on rats = conditions: rat, in vivo, po

| SMILES | percentage of reduction of the infestation (percentage death rate of larvae), Pieris B (Pieris brassicae) [%] | percentage of reduction of the infestation (percentage mortality of larvae), Spodoptera L (Spodoptera littoralis) [%] | mortality at 0.2 ppm (Culex pipiens larvae) [%] | mortality at 0.2 g/m2 (Culex pipiens adults) [%] | percentage of reduction of the infestation (mortality percentage), Musca d. (Musca domestica) [%] | percentage of reduction of the infestation (percentage death rate), Leptinot D. [1] [%] | percentage of reduction of the infestation (percentage death rate), Macrosiph. E. (Macrosiphum euphorbiae) [%] | percentage of reduction of the infestation (percentage of mortality), Tetran U. (Tetranychus urticae) [%] | percentage of reduction of the infestation, Meloidog. I. (Meloidogyne incognita) [%] | mortality at 0.1 g/m2 (Blatta orientalis) [%] | LD50 (Toxicity by os on rats) [mg/kg] |
| --- | --- | --- | --- | --- | --- | --- | --- | --- | --- | --- | --- |
| CCOP(=S)(OCC)Oc1cc(Cl)nn1C(C)C [Compound 5] | 100 | 60 | 100 | 100 | 100 | 100 | 100 | 100 | 90 | 100 | 22 |
| CCOP(=S)(OCC)Oc1cc(Cl)nn1CCC#N [Compound 7] | 100 | 100 | 100 | 70 | 100 | 100 | 100 | 100 | 100 | 100 |  |
| CCOP(=S)(OCC)Oc1cc(Cl)n[nH]1 [Compound 11] |  |  |  |  |  |  |  |  |  |  | 70 |
| CCOP(=S)(NC(C)C)Oc1cc(Cl)nn1C (stereo not drawn) [Compound 49] | 100 | 15 | 100 | 100 | 100 | 100 | 81 | 63 |  | 100 |  |
| CCOP(=S)(OCC)Oc1cc(Cl)nn1CC [Compound 3] | 100 | 82 | 100 | 100 | 100 | 100 | 98 | 100 | 96 | 100 |  |
| CCOP(=S)(OC)Oc1cc(Cl)nn1CC (stereo not drawn) [Compound 24] | 100 | 90 | 100 | 100 | 100 | 100 | 96 | 100 | 62 | 100 |  |
| COP(=S)(OC)Oc1cc(Cl)nn1C(C)C [Compound 4] |  | 80 | 100 | 100 | 100 | 100 | 94 | 80 |  | 100 | 1100 |
| CCOP(=S)(OCC)Oc1cc(Cl)n(-c2ccc([N+](=O)[O-])cc2)n1 [Compound 52] | 100 | 95 | 100 | 0 | 100 | 37 | 54 | 96 | 96 | 100 |  |
| CCOP(=S)(OC)Oc1cc(Cl)n(-c2ccc([N+](=O)[O-])cc2)n1 (stereo not drawn) [Compound 51] | 100 | 100 | 100 | 0 | 100 | 85 | 51 | 94 | 82 |  |  |
| CCOP(=S)(OCC)Oc1cc(C=C(Cl)Cl)nn1CCC#N [Compound 9] | 100 | 100 | 100 | 0 | 100 | 100 | 85 | 85 |  | 100 |  |
| CCOP(=S)(OCC)Oc1cc(Cl)nn1-c1ccccc1 [Compound 2] | 100 | 100 | 100 | 100 | 100 | 97 | 40 |  |  | 100 | 33 |
| CCOP(=S)(OCC)Oc1cc(Cl)nn1Cc1ccccc1 [Compound 29] | 100 | 100 | 100 | 5 | 100 | 100 | 60 | 100 | 59 | 100 |  |
| CCn1nc(Cl)cc1OP(=S)(OC)OC [Compound 21] | 100 | 70 | 100 | 100 | 100 | 100 | 100 | 100 | 100 | 100 |  |
